Assay results taken from US12686703B2, “Cosmetic tetrapeptide, composition and use” (Sederma, priority 2020, dated 2026).
Marks after values point to notes of the source that are not given here. Where a SMILES comes first, the peptide text is derived from it. The star is where a group is joined. Palmitoyl = CCCCCCCCCCCCCCCC(=O)*

How the values were obtained:
Format in all cases: cell-based
Collagen I (PIP) = experiment: ELISA assay of collagen I synthesis (PIP assay) in normal human fibroblasts; settings: concentrations of 5 to 15 ppm; NHF, 72 h contact; vs excipient; p < 0.01
Procedure: Normal human fibroblasts (NHF) in culture are brought into contact with the products to be tested or their excipient (negative control) for 72 h. At the end of the contact, the culture supernatants are removed, and the syntheses of the dermal macromolecules are estimated by ELISA assays. An estimate of cell viability is carried out by Hoechst assay to weight the obtained data.
Collagen I is evaluated via the PIP assay (carboxy-terminal propeptide of procollagen type I) which is a peptide fragment resulting from the enzymatic degradation of procollagen when the latter is excreted outside the fibroblast (therefore in the culture medium where the assay is carried out).

Fibrillin 1 = experiment: Immunofluorescence assay of Fibrillin 1 formation in normal human fibroblasts; settings: 8 ppm; NHF, five-day incubation; p < 0.05
Procedure: Normal human fibroblasts (NHF) are cultured for at least 24 hours in fibroblast growth medium containing serum. Once confluence was reached, the cells are seeded, and the actives and corresponding controls diluted in a culture medium are added. At the end of a five-day incubation period, the supernatant is removed, the cells are washed with PBS and fixed. The cells are then incubated with the primary Fibrillin 1 monoclonal antibody (11C1.3) (Thermo Fisher) diluted in blocking buffer at a concentration of 1:200. The cells are incubated. The primary antibody is removed, and the cells are washed with PBS. The secondary antibody was added at a dilution of 1:1000 in blocking buffer, then removed and the cells are washed with PBS. The formation of Fibrillin 1 by the cells is visualized using a fluorescence microscope. The obtained images are analyzed using an image processing software assigning a numerical value to the coverage density.

[1] = tested on: Hair Follicle Dermal Papilla Cells (HFDPC); experiment: Proliferation study (EdU) on hair follicle dermal papilla cells; settings: p < 0.01
Procedure: (§1) 2.1—Proliferation Studies on Cell Cultures (Hair Follicle Dermal Papilla Cells (HFDPC) and Outer Root Sheath Keratinocytes (ORSK))
(§2) The cells are seeded in adapted culture media and incubated for 24 h. Then the culture media are removed and changed for test media and cells are incubated. The cells are thereafter contacted with the peptide (diluted at different concentrations in DMSO) and with EdU (Ethynyldeoxyuridine), a thymidine-analogue nucleoside which is incorporate into the newly synthetized in proliferating cells. The cultures are stopped, and cells are labelled using a Edu detection kit.

[2] = tested on: Outer Root Sheath Keratinocytes (ORSK); experiment: Proliferation study (EdU) on outer root sheath keratinocytes; settings: 5 ppm, p < 0.01
Procedure: as §1, §2

[3] = tested on: whole hair follicles isolated from scalp explants; experiment: Hair growth from hair follicle bulbs (isolated follicles in culture)
Procedure: Whole follicles (including the infundibulum, upper sheath, bulge, lower sheath, and bulb) are isolated by microdissection from scalp explants issued from surgery. On first day (DO), the hairs are placed individually in wells and keep alive at 37° C. in a humid atmosphere, enriched with 5% CO2, in an adapted culture medium.
Peptide solutions at 10 ppm and 5 ppm are prepared in the culture medium with 0.1% DMSO.
On D0, D3, D5 and D7, the peptide products are incorporated into the culture medium. The culture media are completely renewed for each treatment. The control cases receive no treatment other than renewal of the culture medium.
On day D0, the hairs are removed and stored frozen at −80° C. On D10, the hairs from each case are taken and treated in the same way.
A photograph of the isolated hairs is taken on DO to measure the hair from the bulb to the end of the hair shaft using an image analysis software. The photographs and length measurements are repeated on D3, D5, D7 and D10. The growth of each hair is monitored individually.
During the study, the hairs grow. To estimate the effect of the peptide, the average hair length between the peptide and the solvent control are compared, for each time (see below Table 5).

`CCCCCCCCCCCCCCCC(=O)N[C@@H](CC(C)C)C(=O)N[C@@H](CC(C)C)C(=O)N[C@@H](C)C(=O)N[C@@H](CC(N)=O)C(=O)O` [Pal-LLAN-OH, palmitoyl-leucyl-leucyl-alanyl-asparagine] (Palmitoyl-LLAN-OH) was tested. Which “Collagen I (PIP)” value (Collagen I (PIP)) did it give?
Its value is “+60%”.

What about the “Fibrillin 1” value (Fibrillin 1) of the same compound?
Its value is “+108% (p < 0.05)”.

And the “Cell proliferation variation % vs. control solvent (DMSO)” value ([1]; 5 ppm)?
Its value is “+13.7%”.

And the “Cell proliferation variation % vs. control solvent (DMSO)” value ([1]; 10 ppm)?
The value was “+22.15%”.

And the “Cell proliferation variation % vs. control solvent (DMSO)” value [2]?
The value was “+55%”.

And the “Growth variation compared to solvent control (0.1% DMSO)” value (“Growth variation … (0.1% DMSO)” for short) ([3]; 5 ppm, D3, nsd)?
The value was “+21% (nsd)”.

What about the “Growth variation … (0.1% DMSO)” value ([3]; 5 ppm, D5, p < 0.05) of the same compound?
The value was “+26%*”.

What about the “Growth variation … (0.1% DMSO)” value ([3]; 5 ppm, D7, p < 0.01) of the same compound?
Its value is “+32%**”.

What about the “Growth variation … (0.1% DMSO)” value ([3]; 5 ppm, D10, p < 0.01) of the same compound?
Its value is “+30%**”.

What about the “Growth variation … (0.1% DMSO)” value ([3]; 10 ppm, D3, nsd) of the same compound?
The value was “+16% (nsd)”.

And the “Growth variation … (0.1% DMSO)” value ([3]; 10 ppm, D5, p < 0.05)?
The value was “+28%*”.

And the “Growth variation … (0.1% DMSO)” value ([3]; 10 ppm, D7, p < 0.01)?
The value was “+37%**”.

What about the “Growth variation … (0.1% DMSO)” value ([3]; 10 ppm, D10, p < 0.01) of the same compound?
Its value is “+38%**”.
